The target in test [1] is 5-hydroxytryptamine receptor 6 (Homo sapiens, UniProt P50406). Type of test: cell membranes, HeLa, Membrane. Also: in other assays of this panel Not Active means under 50% inhibition at 10 µM.
Test [2] addresses Sodium-dependent dopamine transporter (Homo sapiens, UniProt Q01959). Nature of the test: DRUGMATRIX: Dopamine Transporter radioligand binding (ligand: [125I] RTI-55). The class given is cell membranes, CHO-K1, Membrane. The conditions noted are these: Not Active = under 50% inhibition at 10 µM.
Test [3] in a line: DRUGMATRIX: Imidazoline I2, Central radioligand binding (ligand: [3H] Idazoxan). The class given is cell membranes, Rattus norvegicus, Wistar, Cerebral cortex, Membrane. The note with it: Not Active = under 50% inhibition at 10 µM.
A short description of test [4]: DRUGMATRIX: Phosphodiesterase PDE3 enzyme inhibition (substrate: [3H]cAMP + cAMP). The class given is tissue-based, Homo sapiens. The note with it: platelet; Not Active = under 50% inhibition at 10 µM.
For another test, the target named is T1, Caspase-1 (Homo sapiens, UniProt P29466).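 Also: Caspase-1 enzyme inhibition assay with a peptide substrate; in other assays of this panel Not Active means under 50% inhibition at 10 µM.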
T1 sequence (P29466 whole entry): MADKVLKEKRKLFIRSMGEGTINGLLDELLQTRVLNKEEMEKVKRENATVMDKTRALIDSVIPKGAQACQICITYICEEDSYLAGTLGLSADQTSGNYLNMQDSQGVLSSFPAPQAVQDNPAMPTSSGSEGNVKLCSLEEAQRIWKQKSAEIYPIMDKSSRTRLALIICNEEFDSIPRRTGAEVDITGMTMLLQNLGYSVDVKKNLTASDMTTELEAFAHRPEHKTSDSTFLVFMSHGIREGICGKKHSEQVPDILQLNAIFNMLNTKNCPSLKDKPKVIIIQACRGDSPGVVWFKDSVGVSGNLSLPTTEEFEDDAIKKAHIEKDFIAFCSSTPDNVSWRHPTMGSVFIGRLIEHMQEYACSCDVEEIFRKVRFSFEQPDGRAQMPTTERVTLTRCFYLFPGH
Set-up: species or system Escherichia coli.

The target in another test is T2, Neutrophil elastase (Homo sapiens, UniProt P08246).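 Also: inhibition of neutrophil elastase enzyme activity, measured with a p-nitroanilide-linked peptide substrate; in other assays of this panel Not Active means under 50% inhibition at 10 µM.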
T2 sequence (P08246 whole entry): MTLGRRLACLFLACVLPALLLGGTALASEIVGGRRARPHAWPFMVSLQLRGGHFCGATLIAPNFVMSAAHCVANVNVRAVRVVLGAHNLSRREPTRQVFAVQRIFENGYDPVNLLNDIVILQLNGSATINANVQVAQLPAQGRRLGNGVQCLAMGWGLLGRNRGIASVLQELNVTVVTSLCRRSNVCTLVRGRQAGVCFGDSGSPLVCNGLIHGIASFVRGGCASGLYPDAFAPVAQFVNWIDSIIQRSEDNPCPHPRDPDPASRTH
The class given is tissue-based.

Molecules are shown by their SMILES.

Chain of 5-hydroxytryptamine receptor 6 (P50406 whole entry): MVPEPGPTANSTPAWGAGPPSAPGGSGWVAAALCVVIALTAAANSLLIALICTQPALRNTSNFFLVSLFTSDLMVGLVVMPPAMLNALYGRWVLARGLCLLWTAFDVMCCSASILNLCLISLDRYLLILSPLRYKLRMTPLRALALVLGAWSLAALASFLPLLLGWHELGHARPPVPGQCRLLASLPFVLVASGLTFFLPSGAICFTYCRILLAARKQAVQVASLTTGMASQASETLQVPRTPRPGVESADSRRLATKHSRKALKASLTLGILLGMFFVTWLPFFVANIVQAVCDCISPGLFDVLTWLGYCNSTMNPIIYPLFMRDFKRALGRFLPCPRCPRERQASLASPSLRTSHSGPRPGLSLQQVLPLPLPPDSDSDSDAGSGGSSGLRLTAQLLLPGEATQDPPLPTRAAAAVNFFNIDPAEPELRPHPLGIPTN
Chain of Sodium-dependent dopamine transporter (Q01959 whole entry): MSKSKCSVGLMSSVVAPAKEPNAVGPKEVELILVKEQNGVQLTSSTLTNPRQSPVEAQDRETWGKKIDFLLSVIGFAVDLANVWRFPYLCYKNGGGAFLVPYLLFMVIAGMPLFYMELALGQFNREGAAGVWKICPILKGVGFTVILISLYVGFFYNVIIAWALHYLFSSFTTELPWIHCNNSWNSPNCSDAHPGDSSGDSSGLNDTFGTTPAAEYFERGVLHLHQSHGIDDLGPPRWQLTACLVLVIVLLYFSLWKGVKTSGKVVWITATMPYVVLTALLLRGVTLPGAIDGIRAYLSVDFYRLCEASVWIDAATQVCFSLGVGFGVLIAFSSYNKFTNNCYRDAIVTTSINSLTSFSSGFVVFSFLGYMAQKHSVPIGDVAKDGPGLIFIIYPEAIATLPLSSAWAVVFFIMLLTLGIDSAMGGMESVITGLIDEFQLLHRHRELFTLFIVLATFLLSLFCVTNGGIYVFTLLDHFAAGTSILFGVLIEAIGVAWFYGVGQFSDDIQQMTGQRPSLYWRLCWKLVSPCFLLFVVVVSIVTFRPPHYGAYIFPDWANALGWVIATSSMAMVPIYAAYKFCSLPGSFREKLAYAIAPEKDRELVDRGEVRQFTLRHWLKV

Broadly, the IC50 is the concentration that inhibits the measured activity by half. In general, Ki refers to the dissociation constant of the complex between target and ligand, obtained from inhibition or displacement. For the molecule `CN1CCCC(CN2c3ccccc3Sc3ccccc32)C1` (stereo not given) [MEPAZINE], the half-inhibitory concentration (IC50) is 1840 nM in test [1] (read-out: IC50); “Not Active” in test [2] (cho-k1); “Not Active” in test [3]; “Not Active” in test [4]; “Not Active” at Caspase-1; “Not Active” against Neutrophil elastase. The Ki in test [1] (read-out: Ki) was 853 nM; in test [3], “Not Active”; in test [4], “Not Active”.
Turning to `Cc1cccc(C)c1NC(=O)C1CCCCN1C` (stereo not given) [MEPIVACAINE], the IC50 entry (in test [1] (hela); in test [2] (cho-k1); in test [3]; in test [4]; at Caspase-1; against Neutrophil elastase) was “Not Active” throughout. Moreover, the Ki result in test [3] and in test [4] was “Not Active” in each case.
For `CN(C)C(=N)NC(=N)N` [METFORMIN], the IC50 entry (in test [1] (hela); in test [2] (cho-k1); in test [3]; in test [4]; against Caspase-1; against Neutrophil elastase) was “Not Active” in each case. The Ki result in test [3] and in test [4] was “Not Active” throughout.
Take `CC(C)(C)NCC(O)COc1cccc2c1CC(O)C(O)C2` (stereo not given) [NADOLOL]: the IC50 result (in test [1] (hela); in test [2] (cho-k1); in test [3]; in test [4]; on Caspase-1; against Neutrophil elastase) was “Not Active” each time. Further, the Ki result in test [3] and in test [4] was “Not Active” in each case.
For `C[C@]12CC[C@H]3[C@@H](CCC4=CC(=O)CC[C@@H]43)[C@@H]1CC[C@@H]2O` [NANDROLONE], the 50% inhibitory concentration (IC50) result (in test [1] (hela); in test [2] (cho-k1); in test [3]; in test [4]; on Caspase-1; on Neutrophil elastase) was “Not Active” throughout. The inhibitory constant (Ki) entry in test [3] and in test [4] was “Not Active” throughout.
Take `C[C@@H]1C/C=C/C=C/C=C/C=C/[C@H](O[C@@H]2O[C@H](C)[C@@H](O)[C@H](N)[C@@H]2O)C[C@@H]2O[C@](O)(C[C@@H](O)C[C@H]3O[C@@H]3/C=C/C(=O)O1)C[C@H](O)[C@H]2C(=O)O` [NATAMYCIN]: the IC50 result (in test [1] (hela); in test [2] (cho-k1); in test [3]; in test [4]; against Caspase-1; against Neutrophil elastase) was “Not Active” throughout. The Ki result in test [3] and in test [4] was “Not Active” each time.
Consider `CN(C)C(=O)Oc1cccc([N+](C)(C)C)c1.[Br-]` [NEOSTIGMINE BROMIDE], for which the half-inhibitory concentration (IC50) entry (in test [1] (hela); in test [2] (cho-k1); in test [3]; in test [4]; on Caspase-1; against Neutrophil elastase) was “Not Active” each time. In addition, the inhibition constant Ki entry in test [3] and in test [4] was “Not Active” in each case.
With `NC(=O)c1cccnc1` [NIACINAMIDE], the 50% inhibitory concentration (IC50) result (in test [1] (hela); in test [2] (cho-k1); in test [3]; in test [4]; against Caspase-1; against Neutrophil elastase) was “Not Active” throughout. In addition, the inhibition constant Ki entry in test [3] and in test [4] was “Not Active” throughout.
Regarding `CS(=O)(=O)Nc1ccc([N+](=O)[O-])cc1Oc1ccccc1` [NIMESULIDE], the 50% inhibitory concentration (IC50) result is “Not Active” in test [1] (hela); 14.9 µM in test [2] (read-out: IC50); “Not Active” in test [3]; “Not Active” in test [4]; “Not Active” on Caspase-1; “Not Active” against Neutrophil elastase. Also, the Ki in test [2] (read-out: Ki) is 11.8 µM; in test [3], “Not Active”; in test [4], “Not Active”.
In the case of `CN1C(=O)CN=C(c2ccccc2)c2cc([N+](=O)[O-])ccc21` [NIMETAZEPAM], the concentration for half-maximal inhibition (IC50) result (in test [1] (hela); in test [2] (cho-k1); in test [3]; in test [4]; at Caspase-1; against Neutrophil elastase) was “Not Active” each time. Further, the inhibitory constant (Ki) entry in test [3] and in test [4] was “Not Active” in each case.
As to `COc1ccc2c(c1OC)C(=O)O[C@@H]2[C@H]1c2c(cc3c(c2OC)OCO3)CCN1C` [NOSCAPINE], the concentration for half-maximal inhibition (IC50) result (in test [1] (hela); in test [2] (cho-k1); in test [3]; in test [4]; against Caspase-1; at Neutrophil elastase) was “Not Active” throughout. The inhibitory constant (Ki) entry in test [3] and in test [4] was “Not Active” throughout.
With `C[C@@H]1O[C@@H](O[C@H]2C[C@@H](O)[C@]3(CO)[C@H]4[C@H](O)C[C@]5(C)[C@@H](C6=CC(=O)OC6)CC[C@]5(O)[C@@H]4CC[C@]3(O)C2)[C@H](O)[C@H](O)[C@H]1O` [OUABAIN], the concentration for half-maximal inhibition (IC50) result (in test [1] (hela); in test [2] (cho-k1); in test [3]; in test [4]; on Caspase-1; against Neutrophil elastase) was “Not Active” throughout. For the same molecule, the Ki entry in test [3] and in test [4] was “Not Active” throughout.
Take `NC(=O)N1c2ccccc2CC(=O)c2ccccc21` [OXCARBAZEPINE]: the IC50 result (in test [1] (hela); in test [2] (cho-k1); in test [3]; in test [4]; against Caspase-1; on Neutrophil elastase) was “Not Active” in each case. In addition, the inhibition constant (Ki) result in test [3] and in test [4] was “Not Active” throughout.
With `COc1ccnc(C[S+]([O-])c2nc3ccc(OC(F)F)cc3[nH]2)c1OC` (stereo not given) [PANTOPRAZOLE], the 50% inhibitory concentration (IC50) entry (in test [1] (hela); in test [2] (cho-k1); in test [3]; in test [4]; against Caspase-1; against Neutrophil elastase) was “Not Active” throughout. In addition, the Ki result in test [3] and in test [4] was “Not Active” in each case.
For `NNCCc1ccccc1` [PHENELZINE], the half-maximal inhibitory concentration (IC50) entry (in test [1] (hela); in test [2] (cho-k1); in test [3]; in test [4]; at Caspase-1; against Neutrophil elastase) was “Not Active” throughout. Moreover, the inhibition constant Ki result in test [3] and in test [4] was “Not Active” in each case.
`CCc1ccc(CCOc2ccc(CC3SC(=O)NC3=O)cc2)nc1` (stereo not given) [PIOGLITAZONE]: the IC50 result (in test [1] (hela); in test [2] (cho-k1); in test [3]; in test [4]; against Caspase-1; at Neutrophil elastase) was “Not Active” throughout. Moreover, the Ki result in test [3] and in test [4] was “Not Active” throughout.
For the molecule `CCCNC(C)C(=O)Nc1ccccc1C` (stereo not given) [PRILOCAINE], the IC50 result (in test [1] (hela); in test [2] (cho-k1); in test [3]; in test [4]; on Caspase-1; against Neutrophil elastase) was “Not Active” throughout. Moreover, the Ki entry in test [3] and in test [4] was “Not Active” throughout.
For `CCN(CC)CCNC(=O)c1ccc(N)cc1` [PROCAINAMIDE], the IC50 result (in test [1] (hela); in test [2] (cho-k1); in test [3]; in test [4]; at Caspase-1; against Neutrophil elastase) was “Not Active” each time. Besides, the inhibition constant (Ki) entry in test [3] and in test [4] was “Not Active” throughout.
Turning to `CCN(CC)CCCC(C)Nc1c2ccc(Cl)cc2nc2ccc(OC)cc12` (stereo not given) [QUINACRINE], the half-inhibitory concentration (IC50) result was “Not Active” in test [1] (hela); “Not Active” in test [2] (cho-k1); 1520 nM in test [3] (read-out: IC50); “Not Active” in test [4]; “Not Active” at Caspase-1; “Not Active” against Neutrophil elastase. For the same molecule, the inhibition constant Ki in test [3] (read-out: Ki) was 1010 nM; in test [4], “Not Active”.
Take `C[C@]12C=CC(=O)C=C1CC[C@H]1[C@@H]3C[C@@H](O)[C@](O)(C(=O)CO)[C@@]3(C)C[C@H](O)[C@@]12F` [TRIAMCINOLONE]: the half-maximal inhibitory concentration (IC50) entry (in test [1] (hela); in test [2] (cho-k1); in test [3]; in test [4]; on Caspase-1; against Neutrophil elastase) was “Not Active” in each case. Moreover, the Ki result in test [3] and in test [4] was “Not Active” each time.
For `CC[C@]1(O)C[C@@H]2CN(CCc3c([nH]c4ccccc34)[C@@](C(=O)OC)(c3cc4c(cc3OC)N(C)[C@H]3[C@@](O)(C(N)=O)[C@H](O)[C@]5(CC)C=CCN6CC[C@]43[C@@H]65)C2)C1` [VINDESINE], the IC50 entry (in test [1] (hela); in test [2] (cho-k1); in test [3]; in test [4]; on Caspase-1; at Neutrophil elastase) was “Not Active” throughout. In addition, the Ki entry in test [3] and in test [4] was “Not Active” each time.
